Legend:
[1] = 101 kPa, Liquid, Vibrating tube method
[2] = xn = mol fraction of the nth substance listed; settings: 101 kPa, Liquid, Vibrating tube method

NCCOCCO [2-(2-aminoethoxy)ethanol]
[1]
Settings | mass density [kg/m3]
283.15 K | 1063.9
293.15 K | 1055.86
303.15 K | 1047.8
313.15 K | 1039.73
323.15 K | 1031.63
333.15 K | 1023.46
343.15 K | 1015.24

CO [methanol]
[1]
Settings | mass density [kg/m3]
283.15 K | 801.254
293.15 K | 791.866
303.15 K | 782.43
313.15 K | 772.902
323.15 K | 763.244
333.15 K | 753.389

NCCO [2-aminoethan-1-ol] + OCCO
mass density [kg/m3], [2]
Settings | x2 = 0 | x2 = 0.1002 | x2 = 0.2 | x2 = 0.2998 | x2 = 0.3999 | x2 = 0.5001 | x2 = 0.5999 | x2 = 0.7 | x2 = 0.8002 | x2 = 0.8999
283.15 K | 1024.11 | 1035.45 | 1046.35 | 1056.77 | 1066.86 | 1076.47 | 1085.82 | 1094.87 | 1103.84 | 1112.47
293.15 K | 1016.23 | 1027.68 | 1038.7 | 1049.24 | 1059.48 | 1069.16 | 1078.59 | 1087.73 | 1096.76 | 1105.44
303.15 K | 1008.32 | 1019.88 | 1031.01 | 1041.67 | 1052.04 | 1061.82 | 1071.33 | 1080.56 | 1089.64 | 1098.37
313.15 K | 1000.37 | 1012.03 | 1023.26 | 1034.05 | 1044.53 | 1054.42 | 1064.02 | 1073.32 | 1082.46 | 1091.24
323.15 K | 992.364 | 1004.13 | 1015.46 | 1026.35 | 1036.96 | 1046.93 | 1056.62 | 1066.01 | 1075.21 | 1084.05
333.15 K | 984.301 | 996.181 | 1007.58 | 1018.58 | 1029.3 | 1039.37 | 1049.14 | 1058.6 | 1067.87 | 1076.77
343.15 K | 976.153 | 988.118 | 999.618 | 1010.71 | 1021.54 | 1031.7 | 1041.55 | 1051.09 | 1060.42 | 1069.37

OCCO [1,2-ethanediol] + NCCOCCO
[2], x1 = 1
Settings | mass density [kg/m3]
283.15 K | 1119.29
293.15 K | 1112.37
303.15 K | 1105.39
313.15 K | 1098.34
323.15 K | 1091.21
333.15 K | 1083.99
343.15 K | 1076.65

OCCO [1,2-ethanediol] + NCCO
[2], x1 = 1
Settings | mass density [kg/m3]
283.15 K | 1119.29
293.15 K | 1112.37
303.15 K | 1105.39
313.15 K | 1098.34
323.15 K | 1091.21
333.15 K | 1083.99
343.15 K | 1076.65

NCCOCCO [2-(2-aminoethoxy)ethanol] + OCCO
mass density [kg/m3], [2]
Settings | x2 = 0 | x2 = 0.0999 | x2 = 0.1998 | x2 = 0.2998 | x2 = 0.4001 | x2 = 0.4999 | x2 = 0.5999 | x2 = 0.7002 | x2 = 0.8 | x2 = 0.8998
283.15 K | 1063.9 | 1069.41 | 1074.47 | 1079.73 | 1084.82 | 1090.24 | 1095.7 | 1101.26 | 1107.46 | 1113.95
293.15 K | 1055.86 | 1061.43 | 1066.58 | 1071.94 | 1077.11 | 1082.67 | 1088.26 | 1093.92 | 1100.25 | 1106.86
303.15 K | 1047.8 | 1053.44 | 1058.65 | 1064.1 | 1069.38 | 1075.06 | 1080.79 | 1086.54 | 1093 | 1099.72
313.15 K | 1039.73 | 1045.41 | 1050.69 | 1056.23 | 1061.6 | 1067.42 | 1073.26 | 1079.13 | 1085.7 | 1092.53
323.15 K | 1031.63 | 1037.35 | 1042.69 | 1048.31 | 1053.78 | 1059.7 | 1065.66 | 1071.68 | 1078.32 | 1085.26
333.15 K | 1023.46 | 1029.22 | 1034.63 | 1040.32 | 1045.89 | 1051.9 | 1057.97 | 1064.11 | 1070.86 | 1077.9
343.15 K | 1015.24 | 1021.03 | 1026.5 | 1032.27 | 1037.92 | 1044.03 | 1050.2 | 1056.51 | 1063.3 | 1070.45

OCCO [1,2-ethanediol]
[1]
Settings | mass density [kg/m3]
283.15 K | 1119.29
293.15 K | 1112.37
303.15 K | 1105.39
313.15 K | 1098.34
323.15 K | 1091.21
333.15 K | 1083.99
343.15 K | 1076.65

NCCO [2-aminoethan-1-ol]
[1]
Settings | mass density [kg/m3]
283.15 K | 1024.11
293.15 K | 1016.23
303.15 K | 1008.32
313.15 K | 1000.37
323.15 K | 992.364
333.15 K | 984.301
343.15 K | 976.153

CC(C)O [propan-2-ol]
[1]
Settings | mass density [kg/m3]
283.15 K | 794.005
293.15 K | 785.764
303.15 K | 777.284
313.15 K | 768.476
323.15 K | 759.309
333.15 K | 749.679
343.15 K | 739.528
